Earlier results in patent publication US6770269B1, “Cosmetic and dermatological light-protective formulations containing triazine derivatives and one or several esters of unbranched-chain carboxylic acids and branched-chain alcohols” (Beiersdorf AG, priority 1998, dated 2004).

CCCCC(CC)COC(=O)c1ccc(Nc2nc(Nc3ccc(C(=O)OCC(CC)CCCC)cc3)nc(Nc3ccc(C(=O)OCC(CC)CCCC)cc3)n2)cc1 (centres unmarked) [UVINUL7 T 150, tris(2-ethylhexyl) 4,4′,4″-(1,3,5-triazine-2,4,6-triyltriimino)trisbenzoate]
corresponding dissolved, and therefore active, UV filter substance (corresponds to the maximum solubility in known solvents): 1-1.5 % by weight
maximum amount of the filter that known solvents can dissolve (known solvents (lipids), prior art): about 15 % by weight
